Laboratory results: US9095567B2, “Vaccine formulations” (priority 2010, dated 2015)

Experiments:
Test in all cases: Preservative effectiveness test, single challenge
Type in all cases: cell-based
[1] = test system: Candida albicans (ATCC#10231); settings: Prev(e)nar 13 formulation, single challenge, 20 to 25° C.
Description: (§1) To test for preservative effectiveness, aliquots of vaccine were inoculated with the following organisms:
(§2) Thirty milliliters (ml) of each vaccine formulation with and without Thimerosal or 2-PE at indicated concentrations or saline containing Thimerosal at 0.02% were inoculated in triplicates with a suspension of each test organism to achieve an inoculum density of approximately 10^5 to 10^6 CFU/ml at time 0 (CFU=colony forming units). […] Samples were mixed to ensure even distribution of challenged organisms. Another 30 ml of vaccine in triplicate (with and without preservative) were used as a negative control and spiked with the culture media alone to evaluate the inherent contamination that might be present in the sample or media. Each of the three series of vaccines, and positive and negative controls, was then separately incubated at 20 to 25° C. Aliquots (1 ml) of the challenged samples and controls (or their appropriate serial ten fold dilutions) were enumerated by plate count in duplicates at time 0 and at intervals of 6 hours, 24 hours, 7 days, 14 days and 28 days post-inoculation.
(§3) USP 29 NF 24 Supplement 2 (USP) requires that, after an inoculation of bacterial micro-organism(s), there is at least 1.0 log reduction from the initial calculated count (i.e., at time of inoculation) at 7 days, at least 3.0 log reduction at 14 days from the previous value measured and no increase at 28 days from the previous measured value. For yeast and fungi, the USP requirement is for there to be no increase from the time of inoculation to 7, 14 and 28 days.
(§4) EP requirements are more stringent. EP 5th Edition 5.6 (5.1.3) requirements for parenteral and ophthalmic preparations has two components: Category A and Category B. Category A (EP-A) requires, for bacteria, at least 2.0 log reduction from the initial calculated count at 6 hours after inoculation, at least 3.0 log reduction at 24 hours from the previous measured value, and no recovery at 28 days. Category B (EP-B) requires, for bacteria, at least 1.0 log reduction at 24 hours from the initial calculated count, at least 3.0 log reduction at 7 days from the previous value measured and not more than 0.5 log increase at 28 days from the previous value measured (i.e., no increase). For yeast and fungi, Category A requires at least 2.0 log reduction at 7 days and no increase from the previous value measured at 28 days, and Category B requires at least 1.0 log reduction at 14 days and no increase from the previous value measured at 28 days.
(§5) Plates containing <300 CFU for bacteria or <100 CFU for yeast or mold were used during enumeration. For single challenge studies, arithmetic average count of all surviving micro-organisms in triplicate and on duplicate plates (6 values per time point) plus their diluted samples were measured and normalized as CFU/ml. The results are expressed as mean log10 CFU/ml reduction (compared to time 0). In this case, the count of surviving micro-organisms is evaluated at time 0 as the baseline and compared to incubation time of 6 hours, 24 hours, 7 days, 14 days and 28 days.

[2] = test system: Pseudomonas aeruginosa (ATCC #9027); settings: Prev(e)nar 13 formulation, 20 to 25° C.
Description: as §1, §2, §3, §4, §5

E. coli = settings: Prev(e)nar 13 formulation, 20 to 25° C.
Description: as §1, §2, §3, §4, §5

[3] = test system: Staphylococcus aureus (ATCC #6538); settings: Prev(e)nar 13 formulation, single challenge, 20 to 25° C.
Description: as §1, §2, §3, §4, §5

[4] = test system: Aspergillus niger (ATCC #16404); settings: Prev(e)nar 13 formulation, single challenge, 20 to 25° C.
Description: as §1, §2, §3, §4, §5

Cc1cccc(O)c1 [0.3% m cresol, Meta-Cresol]
Fails: EP (EP-B) vaccine safety requirements, P. aeruginosa [2] | EP (EP-B) vaccine safety requirements, E. coli (E. coli) | EP (EP-B) vaccine safety requirements, S aureus [3]
Meets: EP (EP-B) vaccine safety requirements, C. albicans [1] | USP vaccine safety requirements, C. albicans [1] | USP vaccine safety requirements, P. aeruginosa [2] | USP vaccine safety requirements, E. coli (E. coli) | USP vaccine safety requirements, S aureus [3] | EP (EP-B) vaccine safety requirements, A. niger [4] | USP vaccine safety requirements, A. niger [4]

Oc1ccccc1 [0.25% phenol, Phenol]
Fails: EP (EP-B) vaccine safety requirements, P. aeruginosa [2] | EP (EP-B) vaccine safety requirements, E. coli (E. coli) | EP (EP-B) vaccine safety requirements, S aureus [3]
Meets: EP (EP-B) vaccine safety requirements, C. albicans [1] | USP vaccine safety requirements, C. albicans [1] | USP vaccine safety requirements, P. aeruginosa [2] | USP vaccine safety requirements, E. coli (E. coli) | USP vaccine safety requirements, S aureus [3] | EP (EP-B) vaccine safety requirements, A. niger [4] | USP vaccine safety requirements, A. niger [4]
